Experimental findings from patent publication US20230219965A1 (KSQ Therapeutics, Inc., priority 2020, published 2023) are described below.

SMILES strings stand for the structures. Where two headings read alike, the source gives them in different places.

Data set [1] has as its target USP1/UAF1 enzyme (Homo sapiens, UniProt O94782). In words: USP1/UAF1 deubiquitination assay (ubiquitin-rhodamine 110 substrate). It is filed as biochemical. The following applies: read-out: USP1 IC50 (Ub-Rho). The method in brief: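 0.05 nM USP1/UAF1 was preincubated 10 min with compounds (dose response from 10 μM) in 50 mM Tris-HCl pH 7.8, 0.5 mM EDTA, 0.01% BSA, 1 mM DTT, 0.01% Tween-20. 150 nM ubiquitin-rhodamine 110 started the reaction, read kinetically 30 min at Ex480/Em540; IC50 by four-parameter fit versus no-enzyme and DMSO controls.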

Data set [2] relates to Ub-PCNA levels in the nucleus of ES2 cells (USP1 activity). In words: ES2 Ub-PCNA immunofluorescence (IF) assay. The class given is cell-based. Particulars: Homo sapiens, read-out: USP1 IC50 (Ub-PCNA). How it is done: USP1 is a deubiquitinating enzyme that removes ubiquitin from mono-ubiquitinated Proliferating Cell Nuclear Antigen (Ub-PCNA). The levels of Ub-PCNA in the nucleus of cells can be used to assess the activity of USP1. An immunofluorescence assay can be established to monitor Ub-PCNA levels in the ovarian cancer cell line, ES2.
An assay can be performed by first plating 5000 ES2 cells per well in black 96 well plates (Corning #3904) and then incubating overnight at 37° C. and 5% CO2. Compounds, resuspended in DMSO, can be added to the cells, to a final DMSO concentration of 0.3%. Plates can be incubated at 37° C. and 5% CO2 for 3 hours.
Cells can be then fixed and stained by first removing the media from each plate and fixing the cells with −20° C. methanol for 5 minutes at room temperature. Fixation plates can be washed with Tris buffered saline with tween (Boston Bioproducts #IBB-855) 5 times for 5 minutes each. Plates can be blocked for 1 hour with 50 μl of Odyssey blocking buffer (Licor #327-50000) at room temperature with rocking. Block can be removed from all wells and 50 μl of primary antibody was added to each well. Ub-PCNA ab (Cell Signaling Technology #13439) can be diluted at 1:400 in Odyssey blocking buffer. Plates can be sealed and incubated overnight at 4° C. Primary antibodies can be removed from the plates and plates can be washed with Tris buffered saline with tween 5 times for 5 minutes. Plates can be stained for 1 hour at room temperature with rocking with 50 μl of secondary antibodies diluted 1:10,000 in Odyssey blocking buffer at room temperature (anti-rabbit Alexa 488). Antibodies can be removed from the plates and plates can be washed with Tris buffered saline with tween 3 times for 5 minutes. Plates can be washed once with DAPI (Chemometec #910-3012) stain diluted 1:5000 (Stock solution of 500 μg/ml) in tris buffered saline with tween for 5 minutes. DAPI stain can be removed and plates can be washed one additional time for 5 minutes with tris buffered saline with tween. Wash can be removed from the plate and 100 μl tris buffered saline with tween can be added back to all wells, Plates can be sealed with Foil seals or black plate seals and plates can be stored at 4° C. until they can be imaged.
Imaging of the plates can be performed by first locating the nuclei using the DAPI stain. A mask can be created by drawing a circle slightly smaller than each nucleus. Ub-PCNA intensities can be measured for each individual nucleus counted. A histogram of all Ub-PCNA nuclear intensities measured in untreated wells can be generated and a 95% cutoff can be established. This 95% cutoff can be used to determine the number of Positive cells that have Ub-PCNA values higher than the 95% cutoff. The number of positive cells can be expressed as a percentage by dividing by the total number of cells in the well. This percent positive value can be used to graph all data and to determine AC50 values.
USP1 is a deubiquitinating enzyme that removes ubiquitin from mono-ubiquitinated
Proliferating Cell Nuclear Antigen (Ub-PCNA). The levels of Ub-PCNA in the nucleus of cells was used to assess the activity of USP1. An immunofluorescence assay was established to monitor Ub-PCNA levels in the ovarian cancer cell line, ES2.
This assay was performed by first plating 5000 ES2 cells per well in black 96 well plates (Corning #3904) and then incubated overnight at 37° C. and 5% CO2. Compounds, resuspended in DMSO, were added to the cells, to a final DMSO concentration of 0.3%. Plates were incubated at 37° C. and 5% CO2 for 3 hours.
Cells were then fixed and stained by first removing the media from each plate and fixing the cells with −20° C. methanol for 5 minutes at room temperature. Following fixation plates were washed with Tris buffered saline with tween (Boston Bioproducts ABB-855) 5 times for 5 minutes each. Plates were blocked for 1 hour with 50μ.1 of Odyssey blocking buffer (Licor #327-50000) at room temperature with rocking. […]

A short description of data set [3]: ADME solubility determination in PBS at pH 2.0 and pH 7.4. Particulars: phosphate buffered saline, 25 °C, thermodynamic from solid. It is filed as physicochemical. In short, it runs like this: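 Dried 10 mM DMSO stock residues taken up in PBS pH 7.4 or pH 2.0, shaken 24 h at 25° C. After centrifugation, supernatant quantified by LC-MS/MS against a standard of known concentration, with a dilution factor applied.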

Data set [4] is described as follows: Liver microsomal metabolic stability, rat liver microsomes (RLM). The following applies: rat, liver microsomes, t1/2 (min) in RLM, 1 μM compound, 1 mg/mL microsomes, NADPH.
Data set [5] can be described thus: Liver microsomal metabolic stability, human liver microsomes (HLM). Particulars: human, liver microsomes.
Experimental: Samples were prepared by adding 222.5 μL of a master solution (100 mM phosphate buffer and 1 mg/mL liver microsomes (HLM or RLM)) and 25 μL of a 10 mM NADPH solution to incubation plates, which were then warmed for 10 min. Each compound was separately dissolved in DMSO to prepare 10 mM stock solutions, which were then diluted to 100 μM with acetonitrile. A reaction was started by adding 2.5 μL of the 100 μM solution of each compound to separate incubation plates such that the final concentration of for each compound in each plate was 1 μM.
25 μL aliquots of each sample were taken at 0.5, 5, 10, 15, 20 and 30 minutes, and the reaction was stopped by adding 5 volumes of cold acetonitrile with IS (100 nM alprazolam, 200 nM caffeine and 100 nM tolbutamide). The samples were then centrifuged at 3,220 G for 30 minutes, and 100 μL of the supernatant fluid was mixed with 100 μL of ultra-pure H2O.
The samples were then analyzed by LC-MS/MS. Peak areas were determined from extracted ion chromatograms. Slope values (k) were determined by linear regression of the natural logarithm of the remaining percentage of the compound vs. incubation time curve. The in vitro half-life (in vitro t1/2) was determined from the slope value using the following equation:
Where [6] appears, read: ES-2, ES2 cells, 3 hours, Ub-PCNA immunofluorescence.
[7] abbreviates: pH 2, aqueous buffer, PBS pH 2.0, 25° C., read-out: Solubility at pH 2.0.
Setting [8] is: pH 7.4, aqueous buffer, PBS pH 7.4, 25° C., read-out: Solubility at pH 7.4.

USP1/UAF1 enzyme, sequence (O94782 whole entry): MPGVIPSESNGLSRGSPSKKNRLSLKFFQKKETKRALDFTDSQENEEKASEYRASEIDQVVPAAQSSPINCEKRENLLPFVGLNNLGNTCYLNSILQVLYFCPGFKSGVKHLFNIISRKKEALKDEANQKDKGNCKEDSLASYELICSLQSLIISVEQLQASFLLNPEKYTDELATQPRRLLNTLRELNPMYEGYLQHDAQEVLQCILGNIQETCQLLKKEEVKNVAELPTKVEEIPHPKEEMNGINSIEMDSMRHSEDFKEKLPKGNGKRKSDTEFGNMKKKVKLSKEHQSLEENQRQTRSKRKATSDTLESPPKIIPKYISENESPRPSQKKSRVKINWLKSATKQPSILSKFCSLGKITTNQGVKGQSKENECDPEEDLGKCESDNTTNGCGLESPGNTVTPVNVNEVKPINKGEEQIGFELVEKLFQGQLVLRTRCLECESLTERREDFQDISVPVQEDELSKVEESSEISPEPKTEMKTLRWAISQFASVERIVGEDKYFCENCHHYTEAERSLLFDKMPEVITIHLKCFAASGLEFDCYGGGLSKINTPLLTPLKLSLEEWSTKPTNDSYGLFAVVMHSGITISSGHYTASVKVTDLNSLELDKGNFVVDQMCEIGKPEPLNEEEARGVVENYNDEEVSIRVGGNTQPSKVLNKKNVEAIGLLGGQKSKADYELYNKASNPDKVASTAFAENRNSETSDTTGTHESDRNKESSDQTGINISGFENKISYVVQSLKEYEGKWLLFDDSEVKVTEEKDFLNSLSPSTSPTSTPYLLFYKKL
USP1/UAF1 enzyme, sequence (Q8TAF3 whole entry partner): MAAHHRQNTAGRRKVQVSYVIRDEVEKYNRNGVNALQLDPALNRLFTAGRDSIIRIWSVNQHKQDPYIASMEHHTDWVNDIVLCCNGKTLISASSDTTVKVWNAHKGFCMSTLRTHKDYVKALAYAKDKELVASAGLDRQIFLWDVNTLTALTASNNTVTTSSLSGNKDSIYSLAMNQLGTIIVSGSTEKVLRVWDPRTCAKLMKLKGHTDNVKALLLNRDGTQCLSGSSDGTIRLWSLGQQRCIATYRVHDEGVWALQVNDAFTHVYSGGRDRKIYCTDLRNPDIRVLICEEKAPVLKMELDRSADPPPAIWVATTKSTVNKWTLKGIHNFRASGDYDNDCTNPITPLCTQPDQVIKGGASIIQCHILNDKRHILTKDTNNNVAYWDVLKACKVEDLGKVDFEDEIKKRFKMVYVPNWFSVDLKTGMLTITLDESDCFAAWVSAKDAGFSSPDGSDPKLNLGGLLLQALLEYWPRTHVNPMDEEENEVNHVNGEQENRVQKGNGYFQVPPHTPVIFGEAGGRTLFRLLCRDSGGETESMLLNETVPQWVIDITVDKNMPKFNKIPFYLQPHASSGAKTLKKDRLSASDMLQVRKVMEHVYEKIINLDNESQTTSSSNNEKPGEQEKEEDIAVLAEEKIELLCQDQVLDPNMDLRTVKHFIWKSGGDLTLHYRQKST

On to `CCn1cc(C(F)(F)F)nc1-c1ccc(CN2CC(C)(C)Cn3nc(-c4c(OC)ncnc4C4CC4)cc32)cc1F` [Example 327, 2-(4-cyclopropyl-6-methoxypyrimidin-5-yl)-4-(4-(1-ethyl-4-(trifluoromethyl)-1H-imidazol-2-yl)-3-fluorobenzyl)-6,6-dimethyl-4,5,6,7-tetrahydropyrazolo[1,5-α]pyrimidine], for which the IC50 in data set [1] and in data set [2] (setting [6]) was under 0.1 µM each time. The values for the solubility at 24 h in data set [3] (setting [7]) and in data set [3] (setting [8]) were at least 10 µM and under 10 µM, respectively. Besides, the half-life at 1 μM in data set [4] and in data set [5] was under 25 min each time.
As for `COc1ncnc(C2CC2)c1-c1cc2n(n1)CCC(=O)N2Cc1ccc(-c2nc(C(F)(F)F)cn2C(C)C)cc1` [Example 72], the IC50 in data set [1] was under 0.1 µM; in data set [2] (setting [6]), 0.1 to 0.5 µM. Also, the solubility at 24 h in data set [3] (setting [7]) and in data set [3] (setting [8]) was under 10 µM each time. For the same molecule, the half-life at 1 μM in data set [4] and in data set [5] was over 25 min in each case.
For `CCn1cc(C(F)(F)F)nc1-c1ccc(NC2c3cc(-c4c(Cl)cnn4C(C)C)nn3CCC2(C)C)cc1` (stereo not drawn) [Example 352, 2-(4-chloro-1-isopropyl-1H-pyrazol-5-yl)-N-(4-(1-ethyl-4-(trifluoromethyl)-1H-imidazol-2-yl)phenyl)-5,5-dimethyl-4,5,6,7-tetrahydropyrazolo[1,5-α]pyridin-4-amine], the IC50 in data set [1] and in data set [2] (setting [6]) was under 0.1 µM in each case. Further, the solubility at 24 h in data set [3] (setting [7]) and in data set [3] (setting [8]) was under 10 µM each time. Moreover, the half-life at 1 μM in data set [4] is under 25 min; in data set [5], over 25 min.
For `COc1cc([C@@H](C)N2C(=O)CCn3nc(-c4c(OC)ncnc4C4CC4)cc32)ccc1-c1nc(C(F)(F)F)cn1C(C)C` [Example 129], the IC50 in data set [1] and in data set [2] (setting [6]) was under 0.1 µM each time. Moreover, the solubility at 24 h in data set [3] (setting [7]) was at least 10 µM; in data set [3] (setting [8]), under 10 µM. In addition, the half-life at 1 μM is under 25 min in data set [4] and over 25 min in data set [5].
With `CCn1cc(C(F)(F)F)nc1-c1ccc([C@H](C)n2c(=O)ccn3nc(-c4c(OC)ncnc4C4CC4)cc23)cc1F` (single isomer, unassigned) [Example 334], the IC50 in data set [1] was under 0.1 µM; in data set [2] (setting [6]), 0.1 to 0.5 µM. For the same molecule, the solubility at 24 h in data set [3] (setting [7]) and in data set [3] (setting [8]) was under 10 µM each time. Further, the half-life at 1 μM in data set [4] and in data set [5] was over 25 min in each case.
Take `Cc1cnn(C(C)C)c1-c1cc2n(n1)CCC(=O)N2Cc1ccc(-c2nc(C(F)(F)F)c[nH]2)cc1` [Example 70]: the 50% inhibitory concentration (IC50) in data set [1] was 0.1 to 0.5 µM; in data set [2] (setting [6]) it was over 0.5 µM. Besides, the solubility at 24 h in data set [3] (setting [7]) and in data set [3] (setting [8]) was under 10 µM in each case. The half-life at 1 μM in data set [4] and in data set [5] was under 25 min each time.
For the molecule `CC(C)n1ncc(Cl)c1-c1cc2n(n1)CCC(=O)N2Cc1ccc(-c2ncccc2N(C)C)cc1` [Example 321], the IC50 in data set [1] and in data set [2] (setting [6]) was under 0.1 µM in each case. The results for the solubility at 24 h in data set [3] (setting [7]) and in data set [3] (setting [8]) were at least 10 µM and under 10 µM, respectively. Also, the half-life at 1 μM in data set [4] and in data set [5] was under 25 min each time.
Take `COc1ncnc(C2CC2)c1-c1cc2n(n1)CCCN2Cc1ccc(-c2nc(C(F)(F)F)cn2C(C)C)c(F)c1` [Example 63]: the IC50 in data set [1] and in data set [2] (setting [6]) was under 0.1 µM in each case. For the same molecule, the solubility at 24 h in data set [3] (setting [7]) is at least 10 µM; in data set [3] (setting [8]) it was under 10 µM. The half-life at 1 μM in data set [4] and in data set [5] was under 25 min each time.
With `CCn1cc(C(F)(F)F)nc1-c1ccc(N(C)C2CCCn3nc(-c4c(Cl)cnn4C(C)C)cc32)cc1` (stereo not drawn) [Example 258, 2-(4-chloro-1-isopropyl-1H-pyrazol-5-yl)-N-(4-(1-ethyl-4-(trifluoromethyl)-1H-imidazol-2-yl)phenyl)-N-methyl-4,5,6,7-tetrahydropyrazolo[1,5-α]pyridin-4-amine], the IC50 was under 0.1 µM in data set [1] and 0.1 to 0.5 µM in data set [2] (setting [6]). Moreover, the solubility at 24 h in data set [3] (setting [7]) and in data set [3] (setting [8]) was under 10 µM throughout. Further, the half-life at 1 μM in data set [4] and in data set [5] was under 25 min in each case.
`CCn1cc(C(F)(F)F)nc1-c1ccc([C@@H](C)N2C(=O)CCn3nc(-c4c(Cl)cnn4C(C)C)nc32)cc1F` [Example 182]: the IC50 in data set [1] and in data set [2] (setting [6]) was under 0.1 µM in each case. For the same molecule, the solubility at 24 h in data set [3] (setting [7]) and in data set [3] (setting [8]) was under 10 µM in each case. For the same molecule, the half-life at 1 μM in data set [4] and in data set [5] was under 25 min each time.
As to `COc1cc(C(F)(F)F)nn1-c1ccc(CN2C(=O)CCn3nc(-c4c(Cl)cnn4C(C)C)cc32)cc1F` [Example 14, 2-(4-chloro-1-isopropyl-1H-pyrazol-5-yl)-4-(3-fluoro-4-(5-methoxy-3-(trifluoromethyl)-1H-pyrazol-1-yl)benzyl)-6,7-dihydropyrazolo[1,5-a]pyrimidin-5(4H)-one], the IC50 in data set [1] and in data set [2] (setting [6]) was under 0.1 µM in each case. Besides, the solubility at 24 h in data set [3] (setting [7]) and in data set [3] (setting [8]) was under 10 µM in each case. The half-life at 1 μM in data set [4] and in data set [5] was over 25 min throughout.
For the molecule `CCn1cc(C(F)(F)F)nc1-c1ccc(CNC2CCCn3nc(-c4c(Cl)cnn4C(C)C)cc32)cc1` (stereo not drawn) [Example 330, 2-(4-chloro-1-isopropyl-1H-pyrazol-5-yl)-N-(4-(1-ethyl-4-(trifluoromethyl)-1H-imidazol-2-yl)benzyl)-4,5,6,7-tetrahydropyrazolo[1,5-α]pyridin-4-amine], the 50% inhibitory concentration (IC50) was under 0.1 µM in data set [1] and under 0.1 µM in data set [2] (ES-2, 3 h). Also, the results for the solubility at 24 h in data set [3] (setting [7]) and in data set [3] (setting [8]) were at least 10 µM and under 10 µM, respectively. Also, the half-life at 1 μM in data set [4] and in data set [5] was under 25 min in each case.
`CC(C)n1ncc(Cl)c1-c1cc2n(n1)CCC(=O)N2Cc1ccc(-c2nn(C)cc2C#N)cc1` [Example 133]: the IC50 was under 0.1 µM in data set [1] and 0.1 to 0.5 µM in data set [2] (setting [6]). Besides, the solubility at 24 h in data set [3] (setting [7]) and in data set [3] (setting [8]) was under 10 µM each time. The half-life at 1 μM in data set [4] and in data set [5] was over 25 min in each case.
